According to patent publication US20190375786A1, “STABLE PEPTIDES AND METHODS OF USE THEREOF” (Fred Hutchinson Cancer Research Center, priority 2016, published 2019):
Positions of bridges follow the written chain, without caps; N, C: chain ends. Residues, ends and D or L forms follow the SMILES beside them.

What was measured:
[1] = target: trypsin (Sus scrofa, UniProt P00761); test: Trypsin digestion resistance of soluble peptide, RP-HPLC; assay type: in vitro ADME, porcine; set-up: purchased Sigma Aldrich 6567; details: 500 U/ml trypsin, 30 minutes at 37.5° C.; HPLC peak vs untreated peptide
trypsin, sequence (P00761 9-231): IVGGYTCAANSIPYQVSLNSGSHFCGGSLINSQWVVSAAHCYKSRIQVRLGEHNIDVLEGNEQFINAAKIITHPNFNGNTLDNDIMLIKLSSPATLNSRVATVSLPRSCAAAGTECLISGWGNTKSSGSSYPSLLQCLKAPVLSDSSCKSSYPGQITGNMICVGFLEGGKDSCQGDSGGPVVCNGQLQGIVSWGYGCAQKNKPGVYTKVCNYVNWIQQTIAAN
Outline: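 Read-out was RP-HPLC (C-18, water/acetonitrile with 0.1% TFA, 5-45% over 10 min) of peptide left after trypsin treatment. Digest: 12.5 μg peptide, 500 U/ml porcine trypsin, PBS, 37.5° C for 30 min, stopped by soybean trypsin inhibitor; samples then reduced (10 mM DTT) or left non-reduced.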

[2] = target: pepsin (Sus scrofa, UniProt P00791); test: Pepsin digestion resistance in simulated gastric fluid, RP-HPLC; assay type: in vitro ADME, porcine; set-up: purchased Sigma Aldrich P7012; details: 500 U/ml pepsin in SGF pH 1.05, 30 minutes at 37.5° C.; HPLC peak vs untreated peptide
pepsin, sequence (P00791 60-385): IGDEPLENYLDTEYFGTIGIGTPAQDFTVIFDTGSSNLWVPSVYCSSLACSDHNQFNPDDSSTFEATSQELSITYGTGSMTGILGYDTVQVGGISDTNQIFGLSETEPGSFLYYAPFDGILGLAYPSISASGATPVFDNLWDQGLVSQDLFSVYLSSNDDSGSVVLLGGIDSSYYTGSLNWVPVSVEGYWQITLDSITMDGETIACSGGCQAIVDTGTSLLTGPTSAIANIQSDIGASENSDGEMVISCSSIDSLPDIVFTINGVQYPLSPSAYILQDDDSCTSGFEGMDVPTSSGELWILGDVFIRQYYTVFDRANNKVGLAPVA
Outline: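 Digestion resistance read by reversed-phase HPLC (C-18, 0.1% TFA, 5–45% acetonitrile over 10 min; 214/280 nm) after 12.5 μg peptide spent 30 min at 37.5 °C in pH 1.05 simulated gastric fluid, with or without 500 U/ml pepsin. Some samples quenched with Tris base and DTT.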

SMILES | Resistance to Trypsin (500 U/ml) [1] | Resistance to Pepsin (500 U/ml) [2]
CC[C@H](C)[C@@H]1NC(=O)[C@@H]2CSSC[C@H](NC(=O)[C@H](CCCCN)NC(=O)[C@@H](NC(=O)[C@H](CC(N)=O)NC(=O)[C@@H](NC(=O)[C@@H]3CCCN3C(=O)[C@@H](NC(=O)CNC(=O)[C@H](CO)NC(=O)CN)C(C)C)[C@@H](C)CC)C(C)C)C(=O)N[C@@H](CCCNC(=N)N)C(=O)NCC(=O)N[C@@H](CO)C(=O)N[C@@H](CCCNC(=N)N)C(=O)N[C@@H](CC(=O)O)C(=O)N[C@H]3CSSC[C@H](NC(=O)[C@H](CCCCN)NC(=O)[C@H](CO)NC(=O)[C@H](CC(N)=O)NC1=O)C(=O)N[C@@H](Cc1c[nH]cn1)C(=O)N[C@H](C(=O)N[C@H](C(=O)N1CCC[C@H]1C(=O)O)[C@@H](C)O)CSSC[C@H](NC(=O)[C@@H]1CCCN1C(=O)[C@H](CC(=O)O)NC(=O)[C@H](CC(C)C)NC3=O)C(=O)N[C@@H](CCCCN)C(=O)N[C@@H](CCCCN)C(=O)N[C@@H](C)C(=O)NCC(=O)N[C@@H](CCSC)C(=O)N[C@@H](CCCNC(=N)N)C(=O)N[C@@H](Cc1ccccc1)C(=O)NCC(=O)N[C@@H](CCCCN)C(=O)N2 [compound 27] (H-GSGVPINVKCRGSRDCLDPCKKAGMRFGKCINSKCHCTP-OH; disulfide 10-30, 16-35, 20-37) | High (A peptide classified as high indicates that the majority (at least 75%) of the HPLC peak of the treated peptide is still present as compared to the HPLC peak of the untreated peptide) | High (A peptide classified as high indicates that the majority (at least 75%) of the HPLC peak of the treated peptide is still present as compared to the HPLC peak of the untreated peptide)
CC[C@H](C)[C@@H]1NC(=O)[C@@H](NC(=O)[C@H](CC(=O)O)NC(=O)[C@H](CCCCN)NC(=O)[C@H](CCC(=O)O)NC(=O)[C@H](CO)NC(=O)[C@H](CO)NC(=O)CN)CSSC[C@@H]2NC(=O)[C@@H]3CSSC[C@@H](C(=O)N[C@@H](CCCNC(=N)N)C(=O)O)NC(=O)[C@H](CCCNC(=N)N)NC(=O)[C@H](CCCCN)NC(=O)[C@H](CCC(=O)O)NC(=O)[C@@H]4CCCN4C(=O)[C@H](CC(N)=O)NC(=O)[C@H]([C@@H](C)O)NC(=O)CNC(=O)[C@H](CCCNC(=N)N)NC(=O)[C@H](CCCNC(=N)N)NC(=O)[C@H](CO)NC(=O)[C@H](CSSC[C@H](NC(=O)[C@H](CCCNC(=N)N)NC(=O)[C@H](CCC(N)=O)NC(=O)[C@H](CC(C)C)NC(=O)[C@H](Cc4c[nH]cn4)NC(=O)[C@H](CCCCN)NC1=O)C(=O)N[C@@H](CCCNC(=N)N)C(=O)N[C@@H](CCC(=O)O)C(=O)N[C@@H](CC(N)=O)C(=O)N[C@@H](CCCCN)C(=O)N[C@@H](CC(=O)O)C(=O)N3)NC(=O)[C@H](CCCCN)NC(=O)[C@H](CCCCN)NC(=O)[C@H](CO)NC2=O [compound 29] (H-GSSEKDCIKHLQRCRENKDCCSKKCSRRGTNPEKRCR-OH; disulfide 7-21, 14-25, 20-36) | Low (A peptide classified as low indicates that the majority (over 75%) of the HPLC peak of the treated peptide disappeared as compared to the HPLC peak of the untreated peptide) | High (A peptide classified as high indicates that the majority (at least 75%) of the HPLC peak of the treated peptide is still present as compared to the HPLC peak of the untreated peptide)
CC[C@H](C)[C@@H]1NC(=O)[C@H](CCC(=O)O)NC(=O)[C@H](CCCNC(=N)N)NC(=O)[C@H](CCCNC(=N)N)NC(=O)[C@@H]2CSSC[C@@H](C(=O)N[C@@H](Cc3ccc(O)cc3)C(=O)N[C@@H](CCCNC(=N)N)C(=O)N[C@@H](CC(N)=O)C(=O)O)NC(=O)[C@H](C(C)C)NC(=O)[C@@H]3CSSC[C@H](NC(=O)[C@H](CO)NC(=O)CNC(=O)CNC(=O)[C@H](CCC(N)=O)NC(=O)[C@@H](NC(=O)[C@H](CCCCN)NC(=O)[C@@H](NC(=O)[C@H](CC(N)=O)NC(=O)[C@@H](NC(=O)[C@H](CCC(N)=O)NC(=O)[C@@H](NC(=O)[C@H](CCC(N)=O)NC(=O)[C@H](CO)NC(=O)CN)C(C)C)[C@@H](C)O)C(C)C)CSSC[C@H](NC(=O)[C@H](CCCCN)NC(=O)CNC(=O)[C@H](C)NC(=O)[C@H](C)NC(=O)[C@H](C(C)C)NC(=O)CNC1=O)C(=O)N[C@@H]([C@@H](C)CC)C(=O)N[C@@H](CC(N)=O)C(=O)NCC(=O)N[C@@H](CCCCN)C(=O)N3)C(=O)N[C@@H](C)C(=O)N[C@@H](CO)C(=O)N[C@@H](C(C)C)C(=O)N2 [compound 30] (H-GSQVQTNVKCQGGSCASVCRREIGVAAGKCINGKCVCYRN-OH; disulfide 10-30, 15-35, 19-37) | Low (A peptide classified as low indicates that the majority (over 75%) of the HPLC peak of the treated peptide disappeared as compared to the HPLC peak of the untreated peptide) | Moderate (A peptide classified as medium indicates that about half (between 25% and 75%) of the HPLC peak of the treated peptide disappeared as compared to the HPLC peak of the untreated peptide)
CC[C@H](C)[C@@H]1NC(=O)[C@@H]2CSSC[C@H](NC(=O)[C@H](CCCCN)NC(=O)[C@@H](NC(=O)[C@H](CC(N)=O)NC(=O)[C@@H](NC(=O)[C@H](CC(=O)O)NC(=O)[C@@H](NC(=O)[C@H](CCC(N)=O)NC(=O)[C@H](CO)NC(=O)CN)[C@@H](C)CC)[C@@H](C)O)C(C)C)C(=O)N[C@@H](CO)C(=O)NCC(=O)N[C@@H](CO)C(=O)N[C@@H](CO)C(=O)N[C@@H](CCCCN)C(=O)N[C@H]3CSSC[C@H](NC(=O)[C@H](CCCNC(=N)N)NC(=O)CNC(=O)[C@H](CC(N)=O)NC1=O)C(=O)N[C@@H]([C@@H](C)O)C(=O)N[C@H](C(=O)N[C@@H](Cc1ccc(O)cc1)C(=O)N1CCC[C@H]1C(=O)O)CSSC[C@H](NC(=O)[C@H]([C@@H](C)CC)NC(=O)[C@H](CCCCN)NC(=O)[C@H](C(C)C)NC3=O)C(=O)N[C@@H]([C@@H](C)CC)C(=O)N[C@@H](CC(=O)O)C(=O)N[C@@H](CCCNC(=N)N)C(=O)N[C@@H](Cc1ccc(O)cc1)C(=O)N[C@@H](CC(N)=O)C(=O)N[C@@H]([C@@H](C)O)C(=O)N[C@@H](CCCNC(=N)N)C(=O)NCC(=O)N[C@@H](C)C(=O)N[C@@H](CCCCN)C(=O)N2 [compound 35] (H-GSQIDTNVKCSGSSKCVKICIDRYNTRGAKCINGRCTCYP-OH; disulfide 10-31, 16-36, 20-38) | Low (A peptide classified as low indicates that the majority (over 75%) of the HPLC peak of the treated peptide disappeared as compared to the HPLC peak of the untreated peptide) | Low (A peptide classified as low indicates that the majority (over 75%) of the HPLC peak of the treated peptide disappeared as compared to the HPLC peak of the untreated peptide)
